From patent US20240189287A1, “PERIPHERALLY RESTRICTED CB1 RECEPTOR BLOCKERS AND USES THEREOF” (BIONANOSIM (BNS) LTD, priority 2021, published 2024)
Entries after “also recorded” stand apart in the source; their conditions may differ. Where two headings read alike, the source gives them in different places.

Key:
[1] = test system: DIO (Diet-Induced-Obese) mice; experiment: In vivo efficacy study in Diet Induced Obesity (DIO) model; design: species or system C57BL/6J mice
Protocol: In vivo efficacy study in Diet Induced Obesity (DIO) model: Male C57BL/6J mice were kept on a high fat diet for 24 weeks. […] Thereafter, metabolic assessment was performed in order to evaluate the efficacy of the treatment. The efficacy was evaluated by measurements of the following parameters: • 1. Body weight and food intake, • 2. Total energy expenditure (TEE) and respiratory quotient (RQ). • 3. Fat and Carbohydrate oxidation (FO and CHO, respectively), • 4. Total ambulation, • 5. Glucose homeostasis, • 6. Hepatic Steatosis and Liver Injury, • 7. Lipid profile, • 8. Kidney function.
Animals: The experimental protocol used is approved by the Institutional Animal Care and Use Committee of the Hebrew University. Male, 25 weeks old, C57BL/6J mice were purchased from Jackson laboratories. Mice were maintained under a 12-h light/dark cycle and fed ad libitum. To maintain diet-induced obesity, C57BL/6J mice were fed with high-fat diet (HFD) (60% of calories from fat, 20% from protein, and 20% from carbohydrates; Research Diet, D12492) for overall 30 weeks.
[…] Body weight and food intake were monitored daily. Total body fat and lean masses were determined by EchoMRI-100H™ (Echo Medical Systems LLC, Houston, TX, USA). 24 h urine was collected 2-4 days before euthanasia using mouse metabolic cages (CCS2000 Chiller System, Hatteras Instruments, NC, USA). At the end of the observation period, mice were euthanized by a cervical dislocation under anesthesia, the kidneys, liver, brain, spleen, fat, and pancreas were removed, and samples were fixed in buffered 4% formalin (for histopathological analysis) or snap frozen (for biochemistry analysis). Trunk blood was collected for determining the biochemical parameters.
Multi-parameter metabolic assessment: Metabolic profile of the mice was assessed by using the Promethion High-Definition Behavioral Phenotyping System
(Sable Instruments, Inc., Las Vegas, NV, USA). Data acquisition and instrument control were performed using MetaScreen software version 2.2.18.0, and the obtained raw data were processed using ExpeData version 1.8.4 using an analysis script detailing all aspects of data transformation. Mice with free access to food and water were subjected to a standard 12 hr light/12 hr dark cycle, which consisted of 48 hr acclimation period followed by 24 hr of sampling. Respiratory gases were measured by using the GA-3 gas analyzer (Sable Systems, Inc., Las Vegas, NV, USA) using a pull-mode, negative-pressure system. Air flow was measured and controlled by FR-8 (Sable Systems, Inc., Las Vegas, NV, USA), with a set flow rate of 2000 mL/min. Water vapor was continuously measured and its dilution effect on O2 and CO2 was mathematically compensated. Effective mass was calculated by [body mass]0.75. Fat oxidation (FO) and carbohydrate oxidation (CHO) were calculated as FO=1.69×VO2−1.69×VCO2 and CHO=4.57×VCO2−3.23×VO2 and expressed as g/d/kg^eff.Mass.
Locomotor activity: Locomotor activity was quantified by the number of disruptions of infrared XYZ beam arrays with a beam spacing of 0.25 cm in the Promethion High-Definition Behavioral Phenotyping System (Sable Instruments, Inc., Las Vegas, NV, USA).
Glucose tolerance (ipGTT) test and insulin sensitivity tests (ipIST): Mice that fasted overnight were injected with glucose (1.5 g/kg, IP), followed by a tail blood collection at 0, 15, 30, 45, 60, 90, 120 min. Blood glucose levels were determined using the Elite glucometer (Bayer, Pittsburgh, PA). Two days later, mice were fasted for 6 hr before receiving insulin (0.75 U/kg, IP; Eli Lilly, DC, USA or Actrapid® vial, novo nordisk A/S, Denmark), and blood glucose levels were determined at the same intervals.
Creatinine clearance was calculated using urine and serum creatinine levels (CCr mL/h=Urine creatinine mg/dL×Urine volume/Serum creatinine mg/dL×24 hr). Fasting blood glucose was measured using the Elite glucometer (Bayer, Pittsburgh, PA). […]

CYP2C9 = CYP2C9 (Homo sapiens (Human), UniProt P11712); experiment: CYP inhibition in human liver microsomes; assay type: in vitro ADME
Chain of CYP2C9 (P11712 whole entry): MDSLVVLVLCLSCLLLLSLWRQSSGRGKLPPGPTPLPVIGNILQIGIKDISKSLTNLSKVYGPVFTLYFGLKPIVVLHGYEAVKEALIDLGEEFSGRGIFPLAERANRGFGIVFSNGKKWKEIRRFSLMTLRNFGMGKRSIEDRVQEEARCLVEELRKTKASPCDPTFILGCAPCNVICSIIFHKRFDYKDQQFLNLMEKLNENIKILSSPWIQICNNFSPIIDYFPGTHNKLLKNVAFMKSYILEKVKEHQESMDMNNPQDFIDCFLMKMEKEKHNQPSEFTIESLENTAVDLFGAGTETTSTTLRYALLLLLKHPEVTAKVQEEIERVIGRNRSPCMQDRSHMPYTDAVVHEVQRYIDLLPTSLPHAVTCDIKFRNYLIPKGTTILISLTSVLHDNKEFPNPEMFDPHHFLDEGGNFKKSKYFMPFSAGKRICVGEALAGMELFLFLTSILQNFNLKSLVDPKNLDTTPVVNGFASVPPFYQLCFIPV
Protocol: (§1) To evaluate the in vitro CYP inhibition of BNS808 and BNS822, the compounds were tested in human liver microsomes that are rich in drug metabolizing enzymes, including CYPs 1A2, 2C9, 2C19, 2D6, 3A4.

CYP 1A2 = CYP 1A2 (Homo sapiens (Human), UniProt P05177); experiment: CYP inhibition in human liver microsomes; assay type: in vitro ADME
Chain of CYP 1A2 (P05177 whole entry): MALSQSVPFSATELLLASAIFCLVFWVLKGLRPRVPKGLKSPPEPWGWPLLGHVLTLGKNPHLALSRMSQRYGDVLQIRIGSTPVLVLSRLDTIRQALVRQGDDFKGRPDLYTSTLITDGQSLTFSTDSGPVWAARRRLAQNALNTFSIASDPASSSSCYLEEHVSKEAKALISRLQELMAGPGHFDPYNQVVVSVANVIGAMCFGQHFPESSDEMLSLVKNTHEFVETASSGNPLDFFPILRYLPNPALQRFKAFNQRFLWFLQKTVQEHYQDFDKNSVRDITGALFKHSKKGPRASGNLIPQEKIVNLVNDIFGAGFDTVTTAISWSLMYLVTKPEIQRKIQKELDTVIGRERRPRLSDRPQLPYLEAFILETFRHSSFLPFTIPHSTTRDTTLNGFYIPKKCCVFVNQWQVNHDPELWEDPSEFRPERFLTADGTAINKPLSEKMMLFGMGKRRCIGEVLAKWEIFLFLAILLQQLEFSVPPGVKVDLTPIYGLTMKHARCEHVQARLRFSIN
Protocol: as §1

CYP3A4 = CYP3A4 (Homo sapiens (Human), UniProt P08684); experiment: CYP inhibition in human liver microsomes; assay type: in vitro ADME; conditions: for IC50: fifth value column, read-out: IC50 (μM) CYP 3A4
Chain of CYP3A4 (P08684 whole entry): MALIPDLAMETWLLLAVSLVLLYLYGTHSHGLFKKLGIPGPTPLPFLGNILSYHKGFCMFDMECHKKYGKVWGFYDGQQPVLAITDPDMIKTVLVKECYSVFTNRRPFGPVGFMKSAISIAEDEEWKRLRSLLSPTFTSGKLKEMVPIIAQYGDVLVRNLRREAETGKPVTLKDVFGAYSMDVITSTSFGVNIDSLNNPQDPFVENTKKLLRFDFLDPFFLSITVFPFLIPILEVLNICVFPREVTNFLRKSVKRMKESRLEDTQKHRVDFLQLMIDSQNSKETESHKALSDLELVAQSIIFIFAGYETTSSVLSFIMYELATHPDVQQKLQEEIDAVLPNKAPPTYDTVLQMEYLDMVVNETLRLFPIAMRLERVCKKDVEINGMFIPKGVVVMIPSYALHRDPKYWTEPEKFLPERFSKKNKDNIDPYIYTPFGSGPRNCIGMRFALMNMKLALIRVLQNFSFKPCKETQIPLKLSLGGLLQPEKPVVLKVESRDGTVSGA
Protocol: as §1

CYP2C19 = CYP2C19 (Homo sapiens (Human), UniProt P33261); experiment: CYP inhibition in human liver microsomes; assay type: in vitro ADME
Chain of CYP2C19 (P33261 whole entry): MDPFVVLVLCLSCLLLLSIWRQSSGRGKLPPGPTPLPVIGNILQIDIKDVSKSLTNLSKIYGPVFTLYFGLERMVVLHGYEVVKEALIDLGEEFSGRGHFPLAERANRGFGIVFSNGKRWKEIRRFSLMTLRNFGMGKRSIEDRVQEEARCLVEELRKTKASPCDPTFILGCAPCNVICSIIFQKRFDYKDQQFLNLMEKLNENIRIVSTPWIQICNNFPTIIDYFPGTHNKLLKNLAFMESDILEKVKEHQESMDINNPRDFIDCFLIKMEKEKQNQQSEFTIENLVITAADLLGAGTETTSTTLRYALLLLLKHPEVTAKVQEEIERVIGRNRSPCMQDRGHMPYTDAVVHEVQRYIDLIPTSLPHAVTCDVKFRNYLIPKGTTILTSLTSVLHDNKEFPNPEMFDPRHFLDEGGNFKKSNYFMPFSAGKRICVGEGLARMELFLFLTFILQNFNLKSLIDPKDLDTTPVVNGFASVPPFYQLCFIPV
Protocol: as §1

CYP 2D6 = CYP 2D6 (Homo sapiens (Human), UniProt P10635); experiment: CYP inhibition in human liver microsomes; assay type: in vitro ADME
Chain of CYP 2D6 (P10635 whole entry): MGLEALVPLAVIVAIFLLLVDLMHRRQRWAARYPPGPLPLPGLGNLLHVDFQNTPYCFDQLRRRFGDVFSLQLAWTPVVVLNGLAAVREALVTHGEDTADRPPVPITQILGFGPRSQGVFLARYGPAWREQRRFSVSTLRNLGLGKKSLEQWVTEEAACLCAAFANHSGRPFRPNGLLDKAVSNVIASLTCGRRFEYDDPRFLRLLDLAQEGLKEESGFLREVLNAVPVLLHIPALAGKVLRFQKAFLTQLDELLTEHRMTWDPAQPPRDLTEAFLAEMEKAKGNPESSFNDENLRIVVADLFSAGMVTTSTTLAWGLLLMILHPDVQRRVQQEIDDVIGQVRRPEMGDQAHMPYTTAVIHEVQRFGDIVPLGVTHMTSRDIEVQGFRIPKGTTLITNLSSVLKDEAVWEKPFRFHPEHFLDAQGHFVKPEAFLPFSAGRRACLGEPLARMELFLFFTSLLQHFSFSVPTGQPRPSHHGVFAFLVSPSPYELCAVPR
Protocol: as §1

CB2 receptor = CB2 receptor (Homo sapiens (Human), UniProt P34972); experiment: CB2 receptor radioligand binding assay, [3H]CP-55,940 displacement, human kidney membranes
Chain of CB2 receptor (P34972 whole entry): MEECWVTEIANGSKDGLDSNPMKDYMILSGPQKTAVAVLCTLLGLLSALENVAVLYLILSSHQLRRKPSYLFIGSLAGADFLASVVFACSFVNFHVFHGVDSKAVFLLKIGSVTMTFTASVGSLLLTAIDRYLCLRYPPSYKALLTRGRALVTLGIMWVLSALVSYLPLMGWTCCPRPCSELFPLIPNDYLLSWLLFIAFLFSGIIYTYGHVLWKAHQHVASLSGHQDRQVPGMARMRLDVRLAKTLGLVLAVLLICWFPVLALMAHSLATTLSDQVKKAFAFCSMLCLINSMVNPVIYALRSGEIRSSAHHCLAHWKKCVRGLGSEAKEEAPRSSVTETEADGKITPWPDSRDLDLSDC
Protocol: Radioligand binding assays: Binding affinity was determined by a radioligand binding assay. The different BB8-conjugates binding to CB1 and CB2 receptors was assessed in competition displacement assays using [^3H]CP-55.940 as the radioligand and crude membranes from mouse brain for CB1 receptor and human kidney cells for CB2 receptor.
CB2 receptor binding assay: Human kidney membranes were used as the source material for CB2 receptors. The displacement of specifically bound tritiated CP-55,940 from these membranes using a standard filtration assay was used to determine the Ki values for the test compounds. Briefly, 1.25 μg of protein was incubated for 1.5 h at 30° C. in the presence of 0.5 nM [^3H]CP-55,940 and various concentrations (10^−5M-10^−11M) of test compound/control, final volume of 1 mL. The incubation was terminated by rapid filtration and washing, and the amount of specifically bound [^3H]CP-55,940 was determined. Briefly, membranes with bound [^3H]CP-55,940 were separated and washed from free ligand by vacuum filtration, adsorbing the membrane onto a Whatman glass microfiber filter paper ([…], Cat #1821271). Finally, the Whatman filter paper with adsorbed membranes was cut and placed in scintillation liquid (Ultima Gold) for 1 h at 25° C. followed by a β counter reading of bound [^3H]CP-55,940 radioligand. All data were in triplicates with Ki values determined using GraphPad Prism 7.02 analysis software.

## O=S(=O)(NC1CCCOc2c1nn(-c1ccccc1Cl)c2-c1ccc(Cl)cc1)c1ccc(Cl)cc1 (stereo not shown) [BNS808, 4-chloro-N-[2-(2-chlorophenyl)-3-(4-chlorophenyl)-5,6,7,8-tetrahydrooxepino[3,2-c]pyrazol-8-yl]benzenesulfonamide]
[1]; 1 mg/kg daily PO, DIO mice on HFD, after 24 days
  reduction of the body weight: ~15%
[1]; 1 mg/kg/day continued PO, DIO mice
  ambulatory activity: did not affect
CYP2C9
  IC50: 8.33 µM
CYP2C9; human liver microsomes
  inhibitor grade, CYP2C9: weak-moderate inhibitor
CYP 1A2
  IC50: > 50 µM
CYP3A4
  inhibitor grade, CYP3A4(M): moderate inhibitor
  IC50: 2.99 µM
CYP2C19
  IC50: 18 µM
CYP2C19; human liver microsomes
  inhibitor grade, CYP2C19: weak-moderate inhibitor
CYP 2D6
  IC50: > 50 µM

## Cc1ccc(C)c(OCCCC(C)(C)C(=O)NC2CCCOc3c2nn(-c2ccccc2Cl)c3-c2ccc(Cl)cc2)c1 (stereo not shown) [BNS822, N-[2-(2-chlorophenyl)-3-(4-chlorophenyl)-5,6,7,8-tetrahydrooxepino[3,2-c]pyrazol-8-yl]-5-(2,5-dimethylphenoxy)-2,2-dimethyl-pentanamide]
[1]; 20 mg/kg continued administration, DIO mice
  weight loss: 20%
[1]; 20 mg/kg/day PO, DIO mice
  body weight: significantly reduced
  food intake: significant decrease
[1]; 20 mg/kg/day PO, DIO/HFD mice
  circulating fed insulin (plasma) levels: significantly lower; also recorded: significant reductions
  glucose levels in fed and fasting conditions: no change; also recorded: no significant changes
  glucose tolerance (GTT, AUC): improved; also recorded: significant reductions
  insulin sensitivity (ITT): no improvement; also recorded: no significant changes
[1]; 20 mg/kg/day PO, HFD mice
  ALT levels: Significant reductions
  fat vacuoles deposition in the liver: reduction
  liver TG content: Significant reductions
  liver cholesterol: not
CB2 receptor
  hCB2R Ki (nM): No binding
CYP2C9; human liver microsomes
  inhibitor grade, CYP2C9: weak-moderate inhibitor
CYP2C9; human liver microsomes, read-out: IC50 (μM) CYP 2C9
  IC50: 8.52 µM
CYP 1A2; human liver microsomes, isozyme order of b227, read-out: IC50 (μM) CYP 1A2
  IC50: > 50 µM
CYP3A4
  IC50: > 50 µM
CYP2C19; human liver microsomes, read-out: IC50 (μM) CYP 2C19
  IC50: > 50 µM
CYP 2D6; human liver microsomes, read-out: IC50 (μM) CYP 2D6
  IC50: > 50 µM
